From patent US20100003246A1, “Novel heterocyclic compounds and uses therof” (priority 2008, published 2010)

Target: T1, b-Raf(V600E) (Homo sapiens, UniProt P15056, V600E)
T1 construct: made in house
Assay: Raf/Mek Amplified Luminescence Proximity Homogeneous Assay (Alpha Screen), b-Raf(V600E)
Type: biochemical
Conditions: mutant b-Raf(V600E), read-out: mut-b-RAF (IC50 in uM)
Description: Assay buffer: 50 mM Tris, pH 7.5, 15 mM MgCl2, 0.01% BSA, 1 mM DTT Stop buffer: 60 mM EDTA, 0.01% Tween20 Bead buffer: 50 mM Tris, pH 7.5, 0.01% Tween20
b-Raf(V600E), active: Recombinant in-house material biotinylated Mek, kinase dead: Recombinant in-house material Alpha Screen detection kit PerkinElmer, #6760617R Anti phospho-MEK½ Cell signaling #9121 384 well assay plates: White Greiner plates, #781207
b-Raf(V600E) approximately 4 pM c-Raf approximately 4 nM biotinylated Mek, Kinase dead approximately 10 nM
Pre-incubation time with compounds 60 min at room temperature Reaction time 1 or 3 hours at room temperature
Raf and biotinylated Mek, kinase dead, were combined at 2× final concentrations in assay buffer (50 mM Tris, pH 7.5, 15 mM MgCl2, 0.01% BSA and 1 mM DTT) and dispensed 10 μl per well in assay plates (Greiner white 384 well assay plates #781207) containing 0.5 μl of 40× of a raf kinase inhibitor test compound diluted in 100% DMSO. The plate was incubated for 60 min at room temperature.
The Raf kinase activity reaction was started by the addition of 10 μl per well of 2×ATP diluted in assay buffer. After 3 hours (bRaf(V600E)) or 1 hour (c-Raf), the reactions were stopped with the addition of 10 μl of stop reagent (60 mM EDTA). Phosphorylated product was measured using a rabbit anti-p-MEK (Cell Signaling, #9121) antibody and the Alpha Screen IgG (Protein A) detection Kit (PerkinElmer #6760617R), by the addition of 30 μL to the well of a mixture of the antibody (1:2000 dilution) and detection beads (1:2000 dilution of both beads) in bead buffer (50 mM Tris, pH 7.5, 0.01% Tween20). The additions were carried out under dark conditions to protect the detection beads from light. A lid was placed on top of the plate and incubated for 1 hour at room temperature, then the luminescence was read on a PerkinElmer Envision instrument. The concentration of each compound for 50% inhibition (IC50) was calculated by non-linear regression using XL Fit data analysis software.
The Raf/Mek Amplified Luminescence Proximity Homogeneous Assay described was used to generate the luminescence and mutant b-Raf(V600E) IC50 data for selected Raf Kinase Inhibitors shown in Table 1 above.

T1 sequence (P15056 whole entry V600E): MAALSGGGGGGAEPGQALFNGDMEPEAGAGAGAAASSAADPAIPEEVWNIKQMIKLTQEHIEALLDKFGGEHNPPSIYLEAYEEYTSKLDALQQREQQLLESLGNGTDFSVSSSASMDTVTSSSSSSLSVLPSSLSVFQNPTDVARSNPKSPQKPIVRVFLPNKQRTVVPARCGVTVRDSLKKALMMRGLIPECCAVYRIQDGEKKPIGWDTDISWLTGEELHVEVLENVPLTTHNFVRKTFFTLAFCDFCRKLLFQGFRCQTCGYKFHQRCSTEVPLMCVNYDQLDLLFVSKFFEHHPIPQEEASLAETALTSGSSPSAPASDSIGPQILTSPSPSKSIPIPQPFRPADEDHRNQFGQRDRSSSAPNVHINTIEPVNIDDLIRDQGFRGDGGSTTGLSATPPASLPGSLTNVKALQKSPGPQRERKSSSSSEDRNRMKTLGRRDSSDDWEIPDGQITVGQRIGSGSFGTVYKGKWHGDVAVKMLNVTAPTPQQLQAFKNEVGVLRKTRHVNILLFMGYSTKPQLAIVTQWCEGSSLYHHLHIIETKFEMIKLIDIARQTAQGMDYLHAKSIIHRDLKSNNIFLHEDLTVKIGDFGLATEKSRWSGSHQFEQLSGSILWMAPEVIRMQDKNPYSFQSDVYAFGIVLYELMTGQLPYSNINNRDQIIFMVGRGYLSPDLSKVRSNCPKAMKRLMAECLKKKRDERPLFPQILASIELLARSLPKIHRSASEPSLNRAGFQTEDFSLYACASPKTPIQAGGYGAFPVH

| Compound | IC50 |
| --- | --- |
| Nc1n[nH]c2cc(-c3[nH]c(-c4ccccc4)nc3-c3ccncc3)ccc12 [Compound 24, 6-(2-phenyl-4-(pyridin-4-yl)-1H-imidazol-5-yl)-1H-indazol-3-amine] | 0.058 µM |
| Nc1ncc(-c2[nH]c(-c3ccccc3)nc2-c2ccncc2)cn1 [Compound 25, 5-(2-phenyl-4-(pyridin-4-yl)-1H-imidazol-5-yl)pyrimidin-2-amine] | 0.489 µM |
| Nc1n[nH]c2ccc(-c3[nH]c(-c4ccccc4)nc3-c3ccncc3)cc12 [Compound 26, 5-(2-phenyl-4-(pyridin-4-yl)-1H-imidazol-5-yl)-1H-indazol-3-amine] | 0.173 µM |
| Nc1cc(-c2[nH]c(-c3ccccc3)nc2-c2ccncc2)ccn1 [Compound 27, 4-(2-phenyl-4-(pyridin-4-yl)-1H-imidazol-5-yl)pyridin-2-amine] | 0.417 µM |
| CC(=O)Nc1n[nH]c2cc(-c3[nH]c(-c4ccccc4)nc3-c3ccncc3)ccc12 [Compound 28, N-(6-(2-phenyl-4-(pyridin-4-yl)-1H-imidazol-5-yl)-1H-indazol-3-yl)acetamide] | 0.449 µM |
| Nc1ccc(-c2[nH]c(-c3ccccc3)nc2-c2ccncc2)cn1 [Compound 29, 5-(2-phenyl-4-(pyridin-4-yl)-1H-imidazol-5-yl)pyridin-2-amine] | 0.26 µM |
| Nc1n[nH]c2cc(-c3[nH]c(-c4ccccc4)nc3-c3ccncc3)cc(F)c12 [Compound 30, 4-fluoro-6-(2-phenyl-4-(pyridin-4-yl)-1H-imidazol-5-yl)-1H-indazol-3-amine] | 0.528 µM |
| c1ccc(-c2nc(-c3ccncc3)c(-c3ccc4cn[nH]c4c3)[nH]2)cc1 [Compound 32, 6-(2-phenyl-4-(pyridin-4-yl)-1H-imidazol-5-yl)-1H-indazole] | 0.017 µM |
| c1ccc(-c2nc(-c3ccncc3)c(-c3ccc4cc[nH]c4c3)[nH]2)cc1 [Compound 33, 6-(2-phenyl-4-(pyridin-4-yl)-1H-imidazol-5-yl)-1H-indole] | 0.054 µM |
| c1ccc(-c2nc(-c3ccncc3)c(-c3ccc4cnoc4c3)[nH]2)cc1 [Compound 34, 6-(2-phenyl-4-(pyridin-4-yl)-1H-imidazol-5-yl)benzo[d]isoxazole] | 0.005 µM |
| Cc1n[nH]c2ccc(-c3[nH]c(-c4ccccc4)nc3-c3ccncc3)cc12 [Compound 35, 3-methyl-5-(2-phenyl-4-(pyridin-4-yl)-1H-imidazol-5-yl)-1H-indazole] | 0.099 µM |
| COc1cncc(-c2[nH]c(-c3ccccc3)nc2-c2ccncc2)c1 [Compound 36, 3-methoxy-5-(2-phenyl-4-(pyridin-4-yl)-1H-imidazol-5-yl)pyridine] | 0.013 µM |
| Nc1ccc(-c2[nH]c(-c3ccccc3)nc2-c2ccncc2)c(F)n1 [Compound 37, 6-fluoro-5-(2-phenyl-4-(pyridin-4-yl)-1H-imidazol-5-yl)pyridin-2-amine] | 0.387 µM |
| COc1nc(-c2[nH]c(-c3ccccc3)nc2-c2ccncc2)cnc1N [Compound 39, 3-methoxy-5-(2-phenyl-4-(pyridin-4-yl)-1H-imidazol-5-yl)pyrazin-2-amine] | 0.006 µM |
| COc1cc(N)ncc1-c1[nH]c(-c2ccccc2)nc1-c1ccncc1 [Compound 40, 4-methoxy-5-(2-phenyl-4-(pyridin-4-yl)-1H-imidazol-5-yl)pyridin-2-amine] | 0.502 µM |
| COc1ncc(-c2[nH]c(-c3ccccc3)nc2-c2ccncc2)cc1N [Compound 42, 2-methoxy-5-(2-phenyl-4-(pyridin-4-yl)-1H-imidazol-5-yl)pyridin-3-amine] | 0.349 µM |
| CNc1ncc(-c2[nH]c(-c3ccccc3)nc2-c2ccncc2)cc1OC [Compound 43, 3-methoxy-N-methyl-5-(2-phenyl-4-(pyridin-4-yl)-1H-imidazol-5-yl)pyridin-2-amine] | 0.025 µM |
| Oc1ccc(-c2[nH]c(-c3ccccc3)nc2-c2ccncc2)cn1 [Compound 44, 5-(2-phenyl-4-(pyridin-4-yl)-1H-imidazol-5-yl)pyridin-2-ol] | 0.465 µM |

| Compound | IC50 |
| --- | --- |
| c1ccc(-c2nc(-c3ccncc3)c(-c3cnc4[nH]ccc4c3)[nH]2)cc1 [Compound 45, 5-(2-phenyl-4-(pyridin-4-yl)-1H-imidazol-5-yl)-1H-pyrrolo[2,3-b]pyridine] | 0.0046 µM |
| Nc1ncc(-c2[nH]c(-c3ccccc3)nc2-c2ccncc2)cc1Cl [Compound 46, 3-chloro-5-(2-phenyl-4-(pyridin-4-yl)-1H-imidazol-5-yl)pyridin-2-amine] | 0.0287 µM |
| O=C1CCc2cc(-c3[nH]c(-c4ccccc4)nc3-c3ccncc3)cnc2N1 [Compound 47, 6-(2-phenyl-4-(pyridin-4-yl)-1H-imidazol-5-yl)-3,4-dihydro-1,8-naphthyridin-2(1H)-one] | 0.885 µM |
| COc1cc(-c2nc(-c3ccccc3)[nH]c2-c2ccnc(C)c2)cnc1N [Compound 48, 3-methoxy-5-(5-(2-methylpyridin-4-yl)-2-phenyl-1H-imidazol-4-yl)pyridin-2-amine] | 0.12 µM |
| c1ccc(-c2nc(-c3ccncc3)c(-c3cnc4[nH]ncc4c3)[nH]2)cc1 [Compound 49, 5-(2-phenyl-4-(pyridin-4-yl)-1H-imidazol-5-yl)-1H-pyrazolo[3,4-b]pyridine] | 0.0222 µM |
| COc1nc(-c2[nH]c(C)nc2-c2ccncc2)cnc1N [Compound 50, 3-methoxy-5-(2-methyl-4-(pyridin-4-yl)-1H-imidazol-5-yl)pyrazin-2-amine] | 0.259 µM |
| COc1cc(-c2[nH]c(C)nc2-c2ccncc2)cnc1N [Compound 51, 3-methoxy-5-(2-methyl-4-(pyridin-4-yl)-1H-imidazol-5-yl)pyridin-2-amine] | 0.0196 µM |
| c1ccc(-c2nc(-c3ccncc3)c(-c3cnc4c(c3)CCN4)[nH]2)cc1 [Compound 52, 5-(2-phenyl-4-(pyridin-4-yl)-1H-imidazol-5-yl)-2,3-dihydro-1H-pyrrolo[2,3-b]pyridine] | 0.0123 µM |
| c1ccc(-c2nc(-c3ccncc3)c(-c3cnc4[nH]cnc4c3)[nH]2)cc1 [Compound 53, 6-(2-phenyl-4-(pyridin-4-yl)-1H-imidazol-5-yl)-3H-imidazo[4,5-b]pyridine] | 0.29 µM |
| COc1cc(-c2nc(-c3ccccc3)[nH]c2-c2ccnc(N)c2)cnc1N [Compound 55, 5-(5-(2-aminopyridin-4-yl)-2-phenyl-1H-imidazol-4-yl)-3-methoxypyridin-2-amine] | 0.0098 µM |
| CNc1nccc(-c2[nH]c(-c3ccccc3)nc2-c2cnc(N)c(OC)c2)n1 [Compound 56, 4-(4-(6-amino-5-methoxypyridin-3-yl)-2-phenyl-1H-imidazol-5-yl)-N-methylpyrimidin-2-amine] | 0.0029 µM |
| c1ccc(-c2nc(-c3ccncc3)c(-c3ccsc3)[nH]2)cc1 [Compound 57, 4-(2-phenyl-5-(thiophen-3-yl)-1H-imidazol-4-yl)pyridine] | 0.62 µM |
| COc1cc(-c2[nH]c(-c3ccccc3)nc2-c2ccnc(N[C@@H]3CCCN(S(=O)(=O)c4ccc(Cl)cc4)C3)n2)cnc1N [Compound 58, (R)-4-(5-(6-amino-5-methoxypyridin-3-yl)-2-phenyl-1H-imidazol-4-yl)-N-(1-(4-chlorophenylsulfonyl)piperidin-3-yl)pyrimidin-2-amine] | 0.0002 µM |
| c1ccc(-c2nc(-c3ccncc3)c(-c3cnc4c(n3)CCN4)[nH]2)cc1 [Compound 59, 2-(2-phenyl-4-(pyridin-4-yl)-1H-imidazol-5-yl)-6,7-dihydro-5H-pyrrolo[3,2-b]pyrazine] | 0.68 µM |
| COc1cc(-c2nc(-c3ccccc3)[nH]c2-c2ccncn2)cnc1N [Compound 61, 3-methoxy-5-(2-phenyl-5-(pyrimidin-4-yl)-1H-imidazol-4-yl)pyridin-2-amine] | 0.0049 µM |
| COc1cc(-c2[nH]c(-c3ccccc3)nc2-c2ccnc(N[C@H]3CCCN(S(=O)(=O)c4ccc(Cl)cc4)C3)n2)cnc1N [Compound 62, (S)-4-(5-(6-amino-5-methoxypyridin-3-yl)-2-phenyl-1H-imidazol-4-yl)-N-(1-(4-chlorophenylsulfonyl)piperidin-3-yl)pyrimidin-2-amine] | 0.0003 µM |
| COc1cc(-c2nc(-c3ccccc3)[nH]c2-c2ccnc(N(C)C)n2)cnc1N [Compound 63, 4-(4-(6-amino-5-methoxypyridin-3-yl)-2-phenyl-1H-imidazol-5-yl)-N,N-dimethylpyrimidin-2-amine] | 0.641 µM |
| COc1cc(-c2ccc(S(=O)(=O)N3CCC[C@@H](Nc4nccc(-c5nc(-c6ccccc6)[nH]c5-c5cnc(N)c(OC)c5)n4)C3)cc2)cnc1N [Compound 64, (R)-4-(5-(6-amino-5-methoxypyridin-3-yl)-2-phenyl-1H-imidazol-4-yl)-N-(1-(4-(6-amino-5-methoxypyridin-3-yl)phenylsulfonyl)piperidin-3-yl)pyrimidin-2-amine] | 0.0003 µM |
